Experimental data published in patent publication US20240327380A1, “BTK INHIBITORS” (BIOGEN MA INC., priority 2020, published 2024).

Key:
[1] = biological target: T1, active BTK enzyme (Upstate 14-552) (Homo sapiens, UniProt Q06187); test: In Vitro BTK Kinase Assay: Btk-PolyGAT-LS Assay; type: biochemical; conditions: ATP 10 μM, polyGAT 100 nM, BTK 0.25 nM, 30 minutes, TRF readout
T1 construct: purchased Upstate 14-552
In short: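 Active BTK (0.25 nM) phosphorylates fluorescein-polyGAT peptide (100 nM) with 10 µM ATP in Tris-HCl pH 7.5/MgCl2/DTT buffer, 30 min, EDTA stop. Phosphopeptide detected by TR-FRET with Tb-PY20 antibody after 45 min at room temperature; IC50 from four-parameter fit against DMSO and EDTA controls.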

[2] = system: CD69 expression on CD19+ B cells in human whole blood; test: In Vitro whole blood CD69 Assay; type: cell-based; conditions: B-cell; human heparinized whole blood, anti-human IgD stimulation overnight, percentage of CD19+ B cells expressing CD69, flow cytometry; read-out: IC50
Procedure: In Vitro whole blood CD69 Assay
Human heparinized venous blood from health donors was aliquoted into 96-well plate and “spiked” with serial dilutions of formula I compounds in DMSO or with DMSO without drug. The final concentration of DMSO in all wells was 0.1%. The plate was incubated at 37° C. for 30 min. Drug-containing samples were stimulated with […] mouse anti-human IgD-dextran (1A62) or […] polyclonal rabbit F(ab′)2 anti-human IgD. Phosphate-buffered saline (PBS) was added to the negative control unstimulated sample and the plates were incubated overnight (18 to 22 hours) at 37° C. Cells were stained with fluorochrome-conjugated anti-CD19 and anti-CD69 antibodies. Lyse/fix solution was used to remove red blood cells by hypotonic lysis and to fix the remaining cells, which were then analyzed by flow cytometry. CD19+ B cells were gated and analyzed for CD69 expression. The percentage of B cells expressing CD69 was plotted versus the log 10 of the concentration of the drug and the best-fit curves (variable Hill slope) were generated to obtain the IC50 value.

T1 sequence (Q06187 whole entry): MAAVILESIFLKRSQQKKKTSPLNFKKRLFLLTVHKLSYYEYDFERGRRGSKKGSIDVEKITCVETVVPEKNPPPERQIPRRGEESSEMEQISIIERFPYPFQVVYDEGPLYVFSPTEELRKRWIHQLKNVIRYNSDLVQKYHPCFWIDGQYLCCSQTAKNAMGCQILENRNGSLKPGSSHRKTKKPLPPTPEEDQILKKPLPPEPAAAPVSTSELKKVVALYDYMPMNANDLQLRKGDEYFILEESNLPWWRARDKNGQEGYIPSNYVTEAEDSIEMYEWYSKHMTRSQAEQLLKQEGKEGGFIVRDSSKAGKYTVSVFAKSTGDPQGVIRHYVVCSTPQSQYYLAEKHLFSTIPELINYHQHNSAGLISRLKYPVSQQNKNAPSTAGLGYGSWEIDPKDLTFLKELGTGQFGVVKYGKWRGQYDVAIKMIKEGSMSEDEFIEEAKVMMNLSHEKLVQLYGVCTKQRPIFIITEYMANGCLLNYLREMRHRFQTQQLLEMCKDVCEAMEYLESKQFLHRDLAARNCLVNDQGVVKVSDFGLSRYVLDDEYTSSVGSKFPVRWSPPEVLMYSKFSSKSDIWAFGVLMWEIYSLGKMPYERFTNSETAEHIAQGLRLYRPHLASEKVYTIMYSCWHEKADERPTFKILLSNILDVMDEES

| SMILES | IC50 [1] | IC50 [2] |
| --- | --- | --- |
| C=CC(=O)N(C)C1CCCN(c2cnccc2-c2ccc(CNC(=O)c3nc(C(C)(C)C)no3)c(C)c2)C1 (stereo not drawn) [Example 13, 3-(tert-butyl)-N-(2-methyl-4-(3-(3-(N-methylacrylamido)piperidin-1-yl)pyridin-4-yl)benzyl)-1,2,4-oxadiazole-5-carboxamide] | ≤ 1 nM | < 100 nM |
| C=CC(=O)N(C)C1CCCN(c2cnccc2-c2ccc(CNC(=O)c3coc(C(C)(C)C)n3)c(C)c2)C1 (stereo not drawn) [Example 37, 2-(tert-butyl)-N-(2-methyl-4-(3-(3-(N-methylacrylamido)piperidin-1-yl)pyridin-4-yl)benzyl)oxazole-4-carboxamide] | ≤ 1 nM | 100 to 1000 nM |
| C=CC(=O)N(C1CC1)[C@@H]1CCCN(c2cnccc2-c2ccc(CNC(=O)c3cn(C(C)(C)C)nn3)c(C)c2)C1 (stereo in doubt) [Example 17, 1-(tert-butyl)-N-(4-(3-(3-(N-cyclopropylacrylamido)piperidin-1-yl)pyridin-4-yl)-2-methylbenzyl)-1H-1,2,3-triazole-4-carboxamide] | ≤ 1 nM | > 1000 nM |
| Cc1cc(-c2ncncc2N2CCN(C(=O)/C=C/CN(C)C)CC2)ccc1CNC(=O)c1nc(C2(C)CC2)no1 [Example 85, (E)-N-(4-(5-(4-(4-(dimethylamino)but-2-enoyl)piperazin-1-yl)pyrimidin-4-yl)-2-methylbenzyl)-3-(1-methylcyclopropyl)-1,2,4-oxadiazole-5-carboxamide] | ≤ 1 nM | < 100 nM |
| Cc1cc(-c2ccncc2N2CCN(C(=O)/C=C/CN(C)C)CC2)ccc1CNC(=O)c1nc(C2(CF)CC2)no1 [Example 94, (E)-N-(4-(3-(4-(4-(dimethylamino)but-2-enoyl)piperazin-1-yl)pyridin-4-yl)-2-methylbenzyl)-3-(1-(fluoromethyl)cyclopropyl)-1,2,4-oxadiazole-5-carboxamide] | ≤ 1 nM | 100 to 1000 nM |
| C=CC(=O)N(C)C1CCCN(c2cnccc2-c2ccc(CNC(=O)c3noc(C(C)(C)C)n3)c(C)c2)C1 (stereo not drawn) [Example 12, 5-(tert-butyl)-N-(2-methyl-4-(3-(3-(N-methylacrylamido)piperidin-1-yl)pyridin-4-yl)benzyl)-1,2,4-oxadiazole-3-carboxamide] | ≤ 1 nM | < 100 nM |
| C=CC(=O)N1CCCC12CCN(c1cnccc1-c1ccc(CNC(=O)c3cn(C(C)(C)C)nn3)c(C)c1)C2 (stereo not drawn) [Example 3, N-(4-(3-(1-acryloyl-1,7-diazaspiro[4.4]nonan-7-yl)pyridin-4-yl)-2-methylbenzyl)-1-(tert-butyl)-1H-1,2,3-triazole-4-carboxamide] | 1 to 10 nM | > 1000 nM |

Continued, values first:

| IC50 [1] | IC50 [2] | SMILES |
| --- | --- | --- |
| ≤ 1 nM | > 1000 nM | C=CC(=O)N(C)[C@@H]1CCCCN(c2cnccc2-c2ccc(CNC(=O)c3cn(C(C)(C)C)nn3)c(C)c2)C1 [Example 51, (R)-1-(tert-butyl)-N-(2-methyl-4-(3-(3-(N-methylacrylamido)azepan-1-yl)pyridin-4-yl)benzyl)-1H-1,2,3-triazole-4-carboxamide] |
| 1 to 10 nM | 100 to 1000 nM | Cc1cc(-c2c(C#N)cncc2N2CCN(C(=O)/C=C/CN(C)C)CC2)ccc1CNC(=O)c1noc(C(C)(C)C)n1 [Example 69, (E)-5-(tert-butyl)-N-(4-(3-cyano-5-(4-(4-(dimethylamino)but-2-enoyl)piperazin-1-yl)pyridin-4-yl)-2-methylbenzyl)-1,2,4-oxadiazole-3-carboxamide] |
| 1 to 10 nM | 100 to 1000 nM | C=CC(=O)N1CCC(c2cnccc2-c2ccc(CNC(=O)c3nc(C(C)(C)C)no3)c(C)c2)CC1 [Example 36, N-(4-(3-(1-acryloylpiperidin-4-yl)pyridin-4-yl)-2-methylbenzyl)-3-(tert-butyl)-1,2,4-oxadiazole-5-carboxamide] |
| 1 to 10 nM | > 1000 nM | C=CC(=O)N(C)C1CCCN(c2cnccc2-c2ccc(CNC(=O)c3ccc(C(F)(F)F)nc3)c(C)c2)C1 (stereo not drawn) [Example 41, N-(2-methyl-4-(3-(3-(N-methylacrylamido)piperidin-1-yl)pyridin-4-yl)benzyl)-6-(trifluoromethyl)nicotinamide] |
| 1 to 10 nM | > 1000 nM | C=CC(=O)N1CCC[C@H](c2cnccc2-c2ccc(CNC(=O)c3nc(C4(C)CC4)no3)c(C)c2)C1 (single isomer, unassigned) [Example 30] |
